{"source": "patent US20200360400A1", "about": "“COMPOSITIONS AND METHODS FOR THE TREATMENT OF ADDICTION, PSYCHIATRIC DISORDERS, AND NEURODEGENERATIVE DISEASE” (Embera NeuroTherapeutics, Inc., priority 2017, published 2020)", "key": {"[1]": {"experiment": "Cocaine interaction crossover study: pharmacokinetics", "experimental": "This was a double-blind, placebo-controlled, randomized, crossover study of non-treatment-seeking subjects with cocaine use disorder (CUD). […] On the last day of each dosing week, subjects received 40 mg IV cocaine. Primary outcomes were safety and pharmacokinetics (PK).\n• Subjects: Non-treatment seeking subjects with cocaine use disorder, ages 21-55 • Design: Single center, randomized, double-blind (DB), placebo-controlled (PLB), 2-period crossover design • Dosing: • One week of dosing with MET/OX (EMB-001) and one week of placebo, separated by one-week washout (randomized, DB, counterbalanced) • 40 mg IV cocaine & saline infusions on 7th day of dosing of MET/OX and placebo • Dose of MET/OX: 720 mg MET & 24 mg OX, BID • Primary Objective: Safety of MET/OX when co-administered with cocaine • Secondary Objectives: • Effects of MET/OX on PK of cocaine • Effects of cocaine on PK of MET/OX • Exploratory Objective: • Effects of MET/OX on measures of craving and subjective effects produced by cocaine"}, "adult male Wistar rats [2]": {"tested_on": "adult male Wistar rats", "experiment": "Cue-induced reinstatement of extinguished cocaine seeking", "format": "in vivo, rat", "details": "for reinstatement of extinguished cocaine seeking: pretreatment with the drug alone, general statement", "experimental": "The experiments described herein were designed to investigate whether or not drug combinations identified as effective in reducing cocaine self-administration would also block the ability of conditioned cues to reinstate extinguished cocaine-seeking behavior. Adult male Wistar rats were implanted with chronic jugular catheters and trained to self-administer cocaine (0.25 mg/kg/infusion) by pressing one of the response levers in the experimental chamber (i.e., the “active” or “cocaine” lever) under a fixed-ratio four (FR4) schedule of reinforcement during daily 2-hour sessions conducted 5 days per week. At the start of each session, both levers were extended into the chamber and the stimulus light above the active lever was illuminated to indicate the availability of cocaine. […] A 20-second timeout period followed each infusion. The stimulus light above the active lever and the house light and tone compound stimulus were extinguished during the timeout period, and the light above the active lever was illuminated once the timeout ended. When responding on the active lever varied less than 20% for two consecutive days, the response requirement was increased to FR2. When similar stability was observed under the FR2 schedule or reinforcement, the response requirement was increased to the final ratio of four. The criteria for stable responding under the FR4 schedule of reinforcement was a minimum of 10 days of exposure to this schedule that concluded with at least three consecutive days when responding varied by less than 10%. […] Once stable cocaine self-administration was observed, rats were exposed to extinction; the rats were placed into the behavioral chambers, but responding on the “cocaine” (active) lever produced no programmed consequences. Extinction training continued until responding decreased to less than 20% of baseline self-administration. Then reinstatement testing commended. The rats were placed into the experimental chambers, both response levers were extended into the chamber, and the stimulus light above the “active” lever was illuminated as during self-administration training. […] Responding on the “active” lever during reinstatement testing was taken as an index of cocaine-seeking behavior. Each experimental group consisted of 8 to 10 rats."}, "adult male Wistar rats [3]": {"tested_on": "adult male Wistar rats", "experiment": "Intravenous cocaine self-administration under a multiple, alternating schedule of food reinforcement and cocaine self-administration", "format": "in vivo, rat", "quoted_text": "Adult male Wistar rats were trained under a multiple, alternating schedule of cocaine and food self-administration. This schedule consisted of alternating periods of cocaine access and food reinforcement. In some instances, as described further below, three doses of cocaine (0.125, 0.25, or 0.50 mg/kg/infusion) were tested. Rats were also periodically trained with saline substitution (cocaine extinction) and food extinction during the same session.\nIn our model, rats were exposed to alternating 15-minute periods of access to cocaine self-administration and food reinforcement. Food was used to control for potential nonspecific, ataxis effects of the drugs and combinations.\nMore specifically, adult male Wistar rats were implanted with chronic jugular catheters. Following recovery from surgery, the rats were trained to respond under a multiple, alternating schedule of food reinforcement and cocaine self-administration. Food-maintained responding was used to control for the non-specific motor effects of the various treatments. During the food component of the schedule, the stimulus light located above the food response lever was illuminated to indicate the availability of food reinforcement. […] A 25-second timeout followed the delivery of each food pellet. During this timeout, the stimulus light was darkened and responses on the food lever were counted but had no scheduled consequences. Responding on the other (cocaine) lever during the food component also had no scheduled consequences. […] Following 15 minutes of access to food, all stimulus lights in the chamber were darkened for a 1-minute timeout. Following the timeout, the stimulus light above the cocaine response lever was illuminated to indicate the availability of cocaine (0.125, 0.25, or 0.5 mg/kg/infusion). […] A 20-second timeout period followed each infusion. […] After 15 minutes of access to cocaine and a 1-minute timeout, the rats were again allowed 15 minutes access to the food component of the schedule. Access to food and cocaine alternated in this manner every 15 minutes during the two hour behavioral sessions so that each rat was exposed to food and cocaine for four 15-minute periods each. Each behavioral session began with 15 minutes access to either food or cocaine, and this alternated daily. Stable baselines of responding were established when the total number of cocaine and food presentations, as well as the number of presentations during each of the four exposures each session, varied less than 10% for three consecutive sessions. At least three different doses of cocaine (e.g., 0.125, 0.25, and 0.5 mg/kg/infusion) were tested. Rats were first trained to self-administer 0.25 mg/kg/infusion, our standard dose of cocaine. When responding stabilized, the dose was changed to 0.125 or 0.5 mg/kg/infusion as appropriate.\nOnce stable baselines of responding were obtained, dose-response curves for the various compounds were individually generated for each rat. Rats were treated with each dose at least twice with a minimum of two days of baseline cocaine self-administration interspersed between each test. Each group of rats was tested with only two of the test compounds to minimize potential carryover effects. […] This rationale guided the selection of the doses of each of the compounds in the combination studies. Each experimental group consisted of between 8 and 10 rats."}, "male Wistar rats [4]": {"tested_on": "male Wistar rats", "experiment": "Cocaine self-administration following adrenalectomy, with plasma CORT and ACTH", "format": "in vivo, rat", "quoted_text": "Subjects: Male Wistar rats were housed in an AALAC-approved animal care facility and maintained at 85-90% of their free-feeding body weights. These rats were on a reversed 12-hour light, 12-hour dark cycle from the beginning of the experimental procedures.\nCatheter surgery: A chronic indwelling jugular catheter (0.012 in i.d.×0.025 in o.d., silicone tubing) was implanted in each rat under pentobarbital anesthesia (50 mg/kg ip) with methyl atropine nitrate pretreatment (10 mg/kg ip). The animals were injected with sterile penicillin G procaine suspension (75,000 units, im) immediately before surgery and allowed 5-7 days to recover.\nAdrenalectomy surgery: Animals were anesthetized with pentobarbital (50 mg/kg ip) with methyl atropine nitrate pretreatment (10 mg/kg ip). The adrenal glands were located through an incision and removed. The animals were injected with sterile penicillin G procaine suspension (75,000 units, im) and allowed to recover from surgery for 7 days. After ADX, the rats received drinking water containing 0.9% saline and 1.0% sucrose. Animals in the SHAM group received the same surgery except that the adrenal glands were not removed. They continued to receive tap water to drink.\nEquipment: Sound-attenuating operant conditioning chambers (Med-Associates, Inc.) were equipped with two response levers and a stimulus light located directly above each lever. A food pellet dispenser was located between the levers. […] An IBM-compatible personal computer and interface system was used to program the procedure and collect the experimental data.\nAlternating Schedule of Cocaine and Food Reinforcement: Following recovery from catheter surgery, the rats were trained to respond under a multiple, alternating schedule of food reinforcement and cocaine self-administration. […]\nHormone Measurements: Blood was collected via the implanted catheters at the end of the behavioral test sessions for the measurement of plasma CORT and adrenocorticotropin releasing hormone (ACTH). […] Plasma CORT and ACTH (ng/ml) were subsequently determined by radioimmunoassay."}, "male Wistar rats [5]": {"tested_on": "male Wistar rats", "experiment": "Forced Swim Test (FST), animal model of depression"}, "[6]": {"details": "rat, in vivo", "experimental": "Adult male Wistar rats (90 to 120 days old) were implanted with chronic, indwelling jugular catheters and were allowed to recover from surgery. […] Thirty minutes following the drug combination or vehicle injection, the rats received intravenous injections of cocaine (0.25 mg/kg/infusion) every 2 minutes for 1 hour. After the final injection of cocaine, blood was collected from the catheter for the analysis of cocaine and its metabolites ecgonine methyl ester and benzoylecgonine. […] All drug concentrations were determined using GCMS procedures."}, "[7]": {"details": "smoking cessation (Nides et al. 2006); cited from earlier work"}, "Wistar-derived male rats": {"tested_on": "Wistar-derived male rats", "experiment": "Intravenous nicotine self-administration, fixed-ratio schedule (FR1, TO-20 s)", "format": "in vivo, rat", "quoted_text": "Animals: Wistar-derived male rats (250-300 g) were purchased from Harlan Laboratories (Livermore, Calif.), housed in groups of two, and maintained in a temperature-controlled environment on a 12 h:12 h light cycle. Before testing, animals were provided free access to food and water during a one-week habituation period, and were handled daily for several days to desensitize them to handling stress. Each rat included in the data analysis received all treatments in order to obtain reliable estimates of drug effects and decrease the impact of inter-animal variability. Animals were handled, housed, and sacrificed in accord with the current NIH guidelines and all applicable local, state, and federal regulations and guidelines.\nVarenicline-HCl (Ontario Chemicals), at 1 mg/kg (expressed as free base), was used as a positive control and administered subcutaneously. Nicotine hydrogen tartrate (Sigma Aldrich) was dissolved in isotonic saline at 0.3 mg/mL (expressed as free base), adjusted to pH 7.0, and diluted to deliver 0.03 mg/kg/infusion. All test compounds were administered 30 minutes prior to nicotine self-administration sessions in a volume of 1 mL/kg.\nApparatus: Food training and nicotine self-administration took place in 8 standard Coulbourn™ operant conditioning chambers. Each chamber was housed in a sound-attenuating chamber. […]"}, "[8]": {"details": "after 40 mg IV cocaine, + EMB-001"}, "[9]": {"details": "after 40 mg IV cocaine, + Placebo"}, "[10]": {"details": "high dose of the drug alone, ip"}, "[11]": {"details": "low, ineffective dose of the drug alone, ip"}, "[12]": {"details": "pretreatment with the drug alone, general statement"}}, "note": "Entries after “also recorded” stand apart in the source; their conditions may differ.", "data": [{"smiles": "CN1[C@H]2CC[C@@H]1[C@@H](C(=O)O)[C@@H](OC(=O)c1ccccc1)C2", "note": "[Benzoylecgonine, benzoylecgonine]", "values": [{"measurement": "AUC 0-∞", "setting": "[1]; [8]", "result": "3.08 ± 0.689", "unit": "µg·h/mL"}, {"measurement": "Cmax", "setting": "[1]; [8]", "result": "0.198 ± 0.055", "unit": "µg/mL"}, {"measurement": "AUC 0-∞", "setting": "[1]; [9]", "result": "2.97 ± 0.72", "unit": "µg·h/mL"}, {"measurement": "Cmax", "setting": "[1]; [9]", "result": "0.199 ± 0.045", "unit": "µg/mL"}]}, {"smiles": "CCCCN(CC)c1nc(C)nc2c1c(C)cn2-c1c(C)cc(C)cc1C", "note": "[CP-154,526]", "values": [{"measurement": "reinstatement of extinguished cocaine seeking", "setting": "adult male Wistar rats [2]", "result": "decrease"}, {"measurement": "cocaine self-administration (number of cocaine infusions)", "setting": "adult male Wistar rats [3]; [10]", "result": "reduced cocaine self-administration"}, {"measurement": "food-maintained responding", "setting": "adult male Wistar rats [3]; [10]", "result": "without affecting food-maintained responding"}, {"measurement": "cocaine self-administration (number of cocaine infusions)", "setting": "adult male Wistar rats [3]; [11]", "result": "did not significantly affect"}, {"measurement": "food-maintained responding", "setting": "adult male Wistar rats [3]; [11]", "result": "did not significantly affect"}, {"measurement": "cocaine self-administration", "setting": "adult male Wistar rats [3]; [12]", "result": "decrease"}]}, {"smiles": "COC(=O)[C@@H]1[C@H]2CC[C@@H](C[C@@H]1O)N2C", "note": "[Ecgonine Methyl Ester, ecgonine methyl ester]", "values": [{"measurement": "AUC 0-∞", "setting": "[1]; [8]", "result": "0.244 ± 0.05", "unit": "µg·h/mL"}, {"measurement": "Cmax", "setting": "[1]; [8]", "result": "0.0205 ± 0.0037", "unit": "µg/mL"}, {"measurement": "AUC 0-∞", "setting": "[1]; [9]", "result": "0.234 ± 0.045", "unit": "µg·h/mL"}, {"measurement": "Cmax", "setting": "[1]; [9]", "result": "0.0215 ± 0.0037", "unit": "µg/mL"}]}, {"smiles": "Cc1nnc2n1-c1ccc(Cl)cc1C(c1ccccc1)=NC2", "note": "[alprazolam]", "values": [{"measurement": "reinstatement of extinguished cocaine seeking", "setting": "adult male Wistar rats [2]", "result": "decrease"}, {"measurement": "cocaine self-administration (number of cocaine infusions)", "setting": "adult male Wistar rats [3]; [10]", "result": "reduced cocaine self-administration"}, {"measurement": "food-maintained responding", "setting": "adult male Wistar rats [3]; [10]", "result": "without affecting food-maintained responding"}, {"measurement": "cocaine self-administration (number of cocaine infusions)", "setting": "adult male Wistar rats [3]; [11]", "result": "did not significantly affect"}, {"measurement": "food-maintained responding", "setting": "adult male Wistar rats [3]; [11]", "result": "did not significantly affect"}, {"measurement": "cocaine self-administration", "setting": "adult male Wistar rats [3]; [12]", "result": "decrease"}]}, {"smiles": "CC(=O)N1CCN(c2ccc(OCC3COC(Cn4ccnc4)(c4ccc(Cl)cc4Cl)O3)cc2)CC1", "note": "(stereo not drawn) [ketoconazole]", "values": [{"measurement": "reinstatement of extinguished cocaine seeking", "setting": "adult male Wistar rats [2]", "result": "decrease"}, {"measurement": "minimally effective dose (reduces cocaine self-administration by at least 50% without affecting food-maintained responding)", "setting": "adult male Wistar rats [3]; drug alone", "result": 25, "unit": "mg/kg"}, {"measurement": "cocaine self-administration (number of cocaine infusions)", "setting": "adult male Wistar rats [3]; [11]", "result": "no effect; also recorded: did not significantly affect"}, {"measurement": "food-maintained responding", "setting": "adult male Wistar rats [3]; [11]", "result": "no effect; also recorded: did not significantly affect"}, {"measurement": "cocaine self-administration", "setting": "adult male Wistar rats [3]; [12]", "result": "decrease"}]}, {"smiles": "CC(C)(c1cccnc1)C(O)c1cccnc1", "note": "(stereo not drawn) [metyrapol]", "values": [{"measurement": "food-maintained responding", "setting": "adult male Wistar rats [3]; 25, 50, 100 and 150 mg/kg ip 30 min before", "result": "not significantly affected except at the highest doses"}, {"measurement": "cocaine self-administration", "setting": "adult male Wistar rats [3]; 25, 50, 100 and 150 mg/kg ip 30 min before, cocaine 0.125, 0.25, 0.5 mg/kg/infusion", "result": "dose dependently decreased"}, {"measurement": "AUC 0-∞", "setting": "[1]; human, in vivo", "result": "5.48 ± 4.84", "unit": "µg·h/mL"}, {"measurement": "Cmax", "setting": "[1]; human, in vivo", "result": "1.85 ± 1.57", "unit": "µg/mL"}]}, {"smiles": "CC(C)(C(=O)c1cccnc1)c1cccnc1", "note": "[metyrapone]", "values": [{"measurement": "blocking cocaine self-administration following adrenalectomy compared to pre-adrenalectomy values", "setting": "male Wistar rats [4]; MET 50, OX 5, OX 10 mg/kg and combinations", "result": "as effective, and possibly even more effective"}, {"measurement": "plasma ACTH", "setting": "male Wistar rats [4]; before adrenalectomy", "result": "not changed"}, {"measurement": "plasma corticosterone", "setting": "male Wistar rats [4]; before adrenalectomy", "result": "not changed"}, {"measurement": "immobility in the FST", "setting": "male Wistar rats [5]; acute and chronic administration, alone and in combination, oxazepam 5 or 10, metyrapone 25 or 50 mg/kg", "result": "effective in reducing immobility"}, {"measurement": "immobility time", "setting": "male Wistar rats [5]; chronic, metyrapone 50 mg/kg alone (Met50 group)", "result": "showed a lessening of immobility time"}, {"measurement": "group means of immobility time relative to vehicle (tolerance)", "setting": "male Wistar rats [5]; chronically treated groups that received only Ox or Met", "result": "equal to or exceeded the vehicle"}, {"measurement": "cue-induced reinstatement (responding on the active lever)", "setting": "adult male Wistar rats [2]; chronic, 50 mg/kg, ip, once per day for 14 days", "result": "reduced cocaine seeking to levels seen when only saline was delivered"}, {"measurement": "reinstatement of extinguished cocaine seeking", "setting": "adult male Wistar rats [2]", "result": "decrease"}, {"measurement": "cocaine self-administration (number of cocaine infusions)", "setting": "adult male Wistar rats [3]; [10]", "result": "reduced cocaine self-administration"}, {"measurement": "food-maintained responding", "setting": "adult male Wistar rats [3]; [10]", "result": "without affecting food-maintained responding"}, {"measurement": "cocaine self-administration (number of cocaine infusions)", "setting": "adult male Wistar rats [3]; [11]", "result": "did not significantly affect"}, {"measurement": "food-maintained responding", "setting": "adult male Wistar rats [3]; [11]", "result": "did not significantly affect"}, {"measurement": "plasma corticosterone", "setting": "adult male Wistar rats [3]; pretreatment with the drug alone", "result": "significant dose-related decreases"}, {"measurement": "cocaine self-administration", "setting": "adult male Wistar rats [3]; [12]", "result": "decrease; also recorded: significant dose-related decreases"}, {"measurement": "plasma concentration in the presence of cocaine", "setting": "[6]", "result": "did not affect"}, {"measurement": "influence on plasma concentration of the other drug", "setting": "[6]; ip", "result": "did not influence"}, {"measurement": "AUC 0-∞", "setting": "[1]; human, in vivo", "result": "0.9 ± 0.492", "unit": "µg·h/mL"}, {"measurement": "Cmax", "setting": "[1]; human, in vivo", "result": "0.429 ± 0.234", "unit": "µg/mL"}]}, {"smiles": "NCc1cc(=O)[nH]o1", "note": "[muscimol]", "values": [{"measurement": "cocaine self-administration (number of cocaine infusions)", "setting": "adult male Wistar rats [3]; [10]", "result": "reduced cocaine self-administration"}, {"measurement": "food-maintained responding", "setting": "adult male Wistar rats [3]; [10]", "result": "without affecting food-maintained responding"}, {"measurement": "cocaine self-administration (number of cocaine infusions)", "setting": "adult male Wistar rats [3]; [11]", "result": "did not significantly affect"}, {"measurement": "food-maintained responding", "setting": "adult male Wistar rats [3]; [11]", "result": "did not significantly affect"}]}, {"smiles": "c1cnc2cc3c(cc2n1)[C@@H]1CNC[C@H]3C1", "note": "[varenicline]", "values": [{"measurement": "quit rates after one year", "setting": "[7]", "result": 14, "unit": "%"}, {"measurement": "nicotine infusions over the 1-hour test session", "setting": "Wistar-derived male rats; 1 mg/kg sc, reduced from 15.4±1.0", "result": "7.7±1.2"}, {"measurement": "reduction of nicotine self-administration, varenicline compared with the metyrapone:oxazepam combination", "setting": "Wistar-derived male rats; fixed-ratio schedule", "result": "comparable to those seen with the lowest dose of the combination"}]}]}
